Test results published in paper PMC4537050, “A long pentraxin-3-derived pentapeptide for the therapy of FGF8b-driven steroid hormone-regulated cancers” (Oncotarget, 2015).

What was measured:
[1] = tested on: chick embryo chorioallantoic membrane (CAM); test: Chick embryo CAM assay with growth factor alginate implants; type: in vivo; details: vessels counted at day 14
Procedure: (§1) Alginate plugs containing vehicle, FGF8b (4.5 pmoles/embryo), VEGF-A (4.5 pmoles/embryo) or S115 cells (2.5×10^4/embryo) in the absence or presence of ARPCA (80 or 140 pmoles/embryo) or ARPVA (140 pmoles/embryo) were placed on the CAM of fertilized white leghorn chicken eggs at day 11 of incubation. At day 14, newly formed blood microvessels converging toward the implant were counted by two observers in a double-blind fashion at 5x magnification under a stereomicroscope (STEMI-SR, x2/0.12; Zeiss) as described.

[2] = mouse, in vivo, ip, 100 mg/kg
Procedure: Eight week-old C57BL/6 mice were treated i.p. with 100 mg/kg of ARPCA every other day for two weeks. During this period, animals were weighted for body weight variation analysis. At the end of treatment, whole blood and serum were harvested and analysed for blood components, biochemical serum parameters and circulating levels of FGF23. The serum levels of FGF23 were assessed by ELISA (Uscn Life Science Inc., Wuhan, PRC, Asia) according to manufacturer's instructions. Untreated mice were used as reference/control.

[3] = biological target: T1, HSPG/FGF8b/FGFR1 ternary complexes (Homo sapiens, UniProt P55075); test: HSPG/FGF8b/FGFR1 mediated cell-cell adhesion assay; type: cell-based; details: 30 ng/ml FGF8b, increasing peptide concentrations
T1 construct: purchased PeproTech; host or cells: FGF8b was added to A745-CHO-flg-1A-luc cells (FGFR1 IIIc transfected) on a glutaraldehyde-fixed CHO-K1 monolayer (endogenous HSPGs)
T1 sequence (P55075 23-215 isoform P55075-3 limits assumed): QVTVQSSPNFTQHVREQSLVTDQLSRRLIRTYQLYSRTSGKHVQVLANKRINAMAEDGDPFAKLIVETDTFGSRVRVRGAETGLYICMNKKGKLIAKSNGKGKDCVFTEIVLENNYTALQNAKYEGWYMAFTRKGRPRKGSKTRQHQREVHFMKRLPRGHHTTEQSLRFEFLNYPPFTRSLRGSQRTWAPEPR
Procedure: This assay was performed as described with minor modifications. Briefly, wild-type CHO-K1 cells were seeded in 24-well plates at 150000 cells/cm^2. After 24 h, cell monolayers were washed with PBS and incubated with 3% glutaraldehyde in PBS for 2 h at 4°C. Fixation was stopped with 0.1 M glycine and cells were washed extensively with PBS. Then, A745-CHO-flg-1A-luc cells (50000 cells/cm^2) were added to CHO-K1 monolayers in serum-free medium plus 10 mM EDTA with or without 30 ng/ml FGF8b in the absence or presence of increasing concentrations of the ARPCA or ARPVA peptides. After 2 h of incubation at 37°C, unattached cells were removed by washing twice with PBS, and A745-CHO-flg-1A-luc bound to the CHO-K1 monolayer were solubilized and luciferase activity was quantified. All experiments were performed in triplicate.

FGF4 = biological target: T2, FGF4 (Homo sapiens, UniProt P08620); test: SPR analysis of FGF/ARPCA interaction, FGF4; type: binding; details: immobilized FGF4
T2 sequence (P08620 31-206): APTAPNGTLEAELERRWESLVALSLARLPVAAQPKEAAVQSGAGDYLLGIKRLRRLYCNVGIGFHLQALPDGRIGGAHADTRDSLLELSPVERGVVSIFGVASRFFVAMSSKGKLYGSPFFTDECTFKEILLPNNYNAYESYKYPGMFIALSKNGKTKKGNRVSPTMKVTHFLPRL

[4] = tested on: S115 cells grafted onto the chick embryo CAM; test: CAM assay with DHT-treated S115 cell grafts; type: in vivo; details: 2.5 × 10^4 cells/embryo; ARPCA 80 or 140 pmoles/embryo, ARPVA 140 pmoles/embryo; day 14
Procedure: as §1

[5] = tested on: FGFR1 phosphorylation in HUVECs; test: FGFR1 phosphorylation in FGF8b-stimulated HUVECs (immunofluorescence); type: cell-based, human; details: 30 ng/ml FGF8b, 60 μM peptide
Procedure: HUVECs were seeded in Ibidi® μ-Slide 8 wells (Ibidi, Martinsried, Germany, EU) at a density of 30000 cells/cm^2, starved in 2.5% FBS for 24 h and stimulated for 20 minutes with 30 ng/ml of FGF8b in the absence or presence of ARPCA or ARPVA. Following stimulation, cells were washed twice in PBS, fixed in cold acetone for 5 minutes and permeabilized with 0.2% Triton-X100 in PBS for 2 minutes at room temperature (RT). After washing in PBS, cells were blocked for 10 minutes at RT in 1% BSA and then incubated with rabbit anti-pFGFR1 or rabbit anti-FGFR1 antibodies (Santa Cruz Biotechnology) for 1 h at RT. After washing in PBS, cells were incubated with AlexaFluor 594-conjugated anti-rabbit antibody (Invitrogen) and DAPI for 30 minutes at RT. Finally, cells were examined under a Zeiss Fluorescence Axiovert 200M microscope (Carl Zeiss).

S115 tumors = test: In vivo tumor therapy study, S115 tumors; parameters: species or system athymic Nu/Nu male mice; details: s.c. S115 cells, i.p. 100 mg/kg every other day starting at day 8, followed for the next 32 days
Procedure: Eight week old C57BL/6 male mice were injected s.c. with 8×10^6 TRAMP-C2 cells, and eight week old athymic Nu/Nu male mice were injected s.c. with 5×10^6 S115 cells. All injections were performed in 200 μl total volume of PBS into the dorsolateral flank. When tumors were palpable treatment was performed every other day by i.p. injection of ARPCA, ARPVA (both at 100 mg/kg) or vehicle (PBS) in 100 μl final volume. Tumors were measured in two dimensions and tumor volume was calculated according to the formula V=(D × d^2)/2, where D and d are the major and minor perpendicular tumor diameters, respectively. At the end of the experimental procedure tumors were harvested, weighted and photographed.

TRAMP-C2 alginate plugs = test: Murine s.c. alginate implant assay, TRAMP-C2 cells; type: in vivo, C57BL/6 male mice; details: i.p. at 100 mg/kg every other day
Procedure: Eightweek-old athymic Nu/Nu or C57BL/6 male mice were injected s.c. with 450 μl of 3% (w/v) sodium alginate solution (alginic acid dissolved in LPS-free PBS) containing 5×10^6 S115 or 8×10^6 TRAMP-C2 cells, respectively. Mice were treated i.p. with ARPCA or ARPVA (100 mg/kg) on day 7, 9, 11 and 13 after implant. On day 14, alginate gels were harvested, weighted, embedded in OCT-compound and immediately frozen to be processed for histological analysis. For immunofluorescence stainings, sections (5 μm thick) were obtained with a cryostat microtome, air dried and fixed with acetone (for 5 min at 4°C). After blocking with 1% BSA (Bovine Serum Albumin) in PBS for 10 minutes, sections were incubated with primary antibodies, rabbit anti-FGFR1 (Santa Cruz Biotechnology), rabbit anti-phospho FGFR1 (Santa Cruz Biotechnology), Ki67 (Dako, Milano, Italy, EU) or CD31 (BD Biosciences Pharmingen, San Diego, CA, USA). After washing with PBS containing 0.05% Tween 20, sections were incubated with the appropriate Alexa Fluor 488 or Alexa Fluor 594-conjugated secondary antibody (Invitrogen). After mounting in a drop of anti-bleaching mounting medium containing DAPI (Vectashield, Vector Laboratories, Burlingame, CA, USA), sections were examined under a Zeiss Fluorescence Axiovert 200M microscope (Carl Zeiss).

## Ac-ARPCA-NH2 [ARPCA, Ac-ARPCA-NH2]
[1]; 4.5 pmoles FGF8b/plug, ARPCA 80 or 140 pmoles, ARPVA 140 pmoles
  angiogenic response elicited by FGF8b in the CAM: significantly reduced
[1]; 4.5 pmoles VEGF-A/plug
  angiogenic response elicited by VEGF-A in the CAM: No inhibitory effect
[2]
  systemic toxic effect in treated animals: absence of any systemic toxic effect
[3]
  inhibitory activity on FGF8b-mediated cell-cell adhesion (in words): dose-dependent inhibitory activity
FGF4
  Kd, FGF4: n.b.
[4]
  neovascular response elicited by DHT-pretreated S115 cells on the CAM: abolished
[5]
  FGFR1 phosphorylation triggered by FGF8b in HUVECs: efficiently impairs FGFR1 phosphorylation
S115 tumors
  S115 tumor growth, long-term experiment: suppresses S115 tumor growth
TRAMP-C2 alginate plugs
  CD31-positive tumor vascularization in TRAMP-C2 alginate plugs: decrease
  FGFR1 activation in TRAMP-C2 alginate plugs: impaired FGFR1 activation
  tumor cell proliferation rate (Ki67 immunostaining) in TRAMP-C2 alginate plugs: decrease
